Key:
[1] = target: BSA (Bos taurus, UniProt P02769); test: Fluorescence enhancement of dyes upon binding to a protein (BSA); conditions: ratio of fluorescence (emission maxima) with BSA vs without, 1 μM dye, 150 μg BSA; for Fluorescence Enhancement with SDS: 10 mM TRIS pH 7.5, 0.05% SDS; for Fluorescence Enhancement without SDS: 10 mM TRIS pH 7.5, no SDS
Method: Some of the dyes of the preceding examples were tested for changes in fluorescence upon binding to a protein (BSA). 1 μM of each dye was mixed with 150 μg of BSA in 10 mM TRIS (pH 7.5) with and without 0.05% SDS. Measurements were carried out on a standard fluorometer with and without BSA being present. Ratios were then calculated for the amount of fluorescence (emission maxima) in the presence of BSA compared to its absence.

[2] = tested on: 78 bp amplicon from the anti-sense C construct; test: Amplification of nucleic acids on the Light Cycler in the presence of dye (Example 33); assay type: biochemical
Method: A target template was amplified on the Light Cycler (Roche) in the presence of various amounts of Dye 109 from Example 14. As a control, various amounts of SYBR Green (Molecular Probes, Eugene, Oreg.) were also included. The template was a 1:500 dilution of a 78 bp amplicon made in a previous reaction from the anti-sense C construct described in Liu et al. 1997 (J. Virol. 71: 4079-4085). A 2×PCR mix was made up of 20 mM Tris pH 8.3, 50 mM KCl, 4 mM MgCl2, 0.4 mM dCTP, 0.4 mM dGTP, 0.4 mM dATP, 0.8 mM dUTP, […] and […].
The Forward Primer sequence is comprised of 20 nucleotides: 5′ […] 3′ (SEQ ID NO: 1). It is an artificial sequence comprising a fusion of human Ul and HIV sequences. Bases 1-7 (CATGATC) of the first sequence are derived from plasmid pHSD-4 and comprise sequences from the human Ul gene. Bases […] (GATCCGGATGGGAGGTG) of the second sequence are derived from a region of the BAL strain of HIV containing the Tat/Rev splice acceptor site.
The Reverse Primer sequence is comprised of 22 nucleotides: 5′[…] (SEQ ID NO: 2). It is an artificial sequence comprising a fusion of human Ul and HIV sequences. Bases 1-11 (GCACATCCGGA) of the first sequence are derived from plasmid pHSD-4 and comprise sequences from the human Ul gene. Bases […] (GATCCGGATGGGAGGTG) of the second sequence are derived from a region of the BAL strain of HIV containing the Tat/Rev splice acceptor site.
The 78 bp amplicon synthesized with Forward Primer (SEQ ID NO: 1) and Reverse Primer (SEQ ID NO: 2) has the following sequence: 5′ […] 3′ (SEQ ID NO: 3). It is an artificial sequence comprising a fusion of human Ul and HIV sequences. Bases 1-11 (GCACATCCGGA) and 68-78 (TCCGGATGTGC) are derived from plasmid pHSD-4 and comprise sequences from the human Ul gene. Bases […] are derived from a region of the BAL strain of HIV containing the Tat/Rev splice acceptor site.
A master mixture was made up of: • 350 µl of 2×PCR mix described above • 14 µl of 25 mM MgCl2 • 122.5 µl of DEPC treated H2O • 14 ul of 1 u/l ung (Epicentre) • 7 µl of 10 mg/ml BSA (New England Biolabs, Beverly, Mass.) • 7 l Taq polymease (Perkin Elmer)+7 µl of TaqStart (Clontech) • 2.5 µl of target template+2.0 l of various dilutions of dyes were added to 15.5 µl of Master mixture, incubated at 45° C. for 10 minutes and then amplified by: • 1) Melting • 2 minutes @ 95° C. • 2) Cycling • a) Denaturation step: 0 seconds @ 95° C. • b) Annealing step: 5 seconds @ 69° C. for first cycle; subsequent cycles were each reduced by 0.5° C. until 65° C. was reached and all annealing steps in further cycles were carried out at this temperature • c) Extension step: 5 seconds @ 72° C. • 3) After completion of 56 cycles, all samples were maintained at 4° C. until analyzed.
After the amplification reactions were finished, the samples were analyzed by gel electrophoresis. For SYBR Green, the recommended reaction concentration is 1:10,000. As such, the amplification products shown in lanes 5 and 6 using 2 l of […] dilution in a 20 l reaction (final=1:8,000) is approximately representative of the product from the standard procedure. For Dye 109, the reactions are listed in terms of dilutions of a stock of Dye 109 with an OD reading of 200 taken at 495 nm. […] However, when lower dilutions of the dyes were added there was no inhibition of the process.

[3] = tested on: 78 bp amplicon from the anti-sense C construct; test: Amplification of nucleic acids in the presence of dye using a standard PCR machine (Example 34); assay type: biochemical; conditions: for amplicon synthesis (gel analysis, FIG. 2): 20 cycles
Method: The experiment shown in Example 33 was repeated using a standard PCR machine for synthesis to see if the effects observed in Example 33 was dependent upon the rapid heating and cooling steps used in the Light Cycler.
A master mixture was made up of: • 500 µl of 2× PCR mix described in example 33 • 20 µl of 25 mM MgCl2 • 175 µl of DEPC treated H2O • 10 ul of 1 u/l ung (Epicentre) • 10 µl of 10 mg/ml BSA (New England Biolabs, Beverly, Mass.) • 10 l Taq polymease (Perkin Elmer)+10 µl of TaqStart (Clontech) PCR conditions were 2.5 µl of target template+2.0 l of dye was added to 15.5 µl of Master mixture incubated at 45° C. for 10 minutes and then amplified using cycles of: • a) 94° C. for 30 seconds • b) 65° C. for 30 seconds • c) 72° C. for 1 minute
A duplicate set of samples was amplified with one set being taken out after 20 cycles of amplification and the second set undergoing 40 cycles. […] The other effect previously observed was also seen, i.e. non-target amplicon synthesis seen in the no Dye reaction (lane 1) was reduced with the 1:200 dilution of SYBR Green and the 1:10 dilution of Dye 109 again repeating the results of Example 33.

Sequence of BSA (P02769 25-607): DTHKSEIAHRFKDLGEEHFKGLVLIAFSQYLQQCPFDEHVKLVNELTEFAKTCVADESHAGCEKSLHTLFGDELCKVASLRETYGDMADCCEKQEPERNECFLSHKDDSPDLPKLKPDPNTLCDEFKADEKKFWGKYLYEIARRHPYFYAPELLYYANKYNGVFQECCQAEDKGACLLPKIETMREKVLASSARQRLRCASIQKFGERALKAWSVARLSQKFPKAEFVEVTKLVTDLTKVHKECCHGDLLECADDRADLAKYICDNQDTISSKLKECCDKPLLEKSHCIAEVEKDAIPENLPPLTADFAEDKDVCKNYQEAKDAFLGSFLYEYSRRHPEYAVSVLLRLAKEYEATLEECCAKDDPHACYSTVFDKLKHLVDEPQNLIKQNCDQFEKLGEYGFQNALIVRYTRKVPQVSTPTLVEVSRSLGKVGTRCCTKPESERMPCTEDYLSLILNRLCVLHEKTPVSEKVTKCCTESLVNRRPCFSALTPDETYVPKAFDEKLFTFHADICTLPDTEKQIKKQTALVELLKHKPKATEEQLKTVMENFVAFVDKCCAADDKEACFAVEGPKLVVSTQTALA

CCCCCCN(CCCCCC)c1ccc(C=Cc2sc3cc(S(=O)(=O)N4CCCCC4)ccc3[n+]2CCCCS(=O)(=O)[O-])cc1 [Dye 114]
Fluorescence Enhancement with SDS [1]: 70
Fluorescence Enhancement without SDS [1]: 6

CN(C)CCN(C)C1=C/C(=C\c2sc3cc(S(=O)(=O)N4CCCCC4)ccc3[n+]2C)c2ccccc2N1c1ccccc1 [Dye 109]
synthesis of target derived amplicons compared to the reaction without any dye ([2]; 1:25 dilution of Dye 109 stock (OD 200 at 495 nm), lanes 11 and 12): enhancement of overall synthesis of target derived amplicons
synthesis of non-target derived amplicons ([2]; 1:25 dilution of Dye 109 stock, lanes 11 and 12): elimination or suppression of the synthesis of non-target derived amplicons
detection of real time synthesis in the Light Cycler ([2]; data not shown): could be used for this purpose
amplification (gel analysis, FIG. 1) ([2]; undiluted Dye 109 stock (OD 200 at 495 nm), 56 cycles): strong inhibition of amplification
amplicon synthesis (gel analysis, FIG. 2) ([3]; 1:10 dilution of Dye 109, lanes 12 and 13): a single discrete band
amplicon synthesis (gel analysis, FIG. 2) ([3]; 1:15 dilution of Dye 109, lanes 14 and 15): lesser amounts of synthesis
amplicon synthesis (gel analysis, FIG. 2) ([3]; 1:20 and 1:25 dilutions of Dye 109, lanes 16/17 and 18/19): faint bands
non-target amplicon synthesis compared to the no Dye reaction ([3]; 40 cycles, 1:10 dilution of Dye 109): reduced

C[n+]1c(/C=C/c2cc3c4c(c2)CCCN4CCC3)sc2cc(S(=O)(=O)N3CCCCC3)ccc21 [Dye 101]
Fluorescence Enhancement with SDS [1]: 140
Fluorescence Enhancement without SDS [1]: 33

CCOP(=O)(CCC[n+]1ccc(C=Cc2ccc3c(c2)c2ccccc2n3CC)c2ccccc21)OCC.[Br-] [Dye 116]
Fluorescence Enhancement with SDS [1]: None
Fluorescence Enhancement without SDS [1]: 12

CCn1c2ccccc2c2cc(/C=C/c3sc4cc(S(=O)(=O)N5CCCCC5)ccc4[n+]3CCCCS(=O)(=O)[O-])ccc21 [Dye 103]
Fluorescence Enhancement with SDS [1]: 10
Fluorescence Enhancement without SDS [1]: None

CCCCN(CCCC)c1ccc(C=Cc2cc[n+](CCCP(=O)(OCC)OCC)c3ccccc23)cc1.[Br-] [Dye 119]
Fluorescence Enhancement with SDS [1]: 92
Fluorescence Enhancement without SDS [1]: 95

CCCCCCN(CCCCCC)c1ccc(C=Cc2cc[n+](CCCP(=O)(OCC)OCC)c3ccccc23)cc1.[Br-] [Dye 115]
Fluorescence Enhancement with SDS [1]: 78
Fluorescence Enhancement without SDS [1]: 100

CCCCCCN(CCCCCC)c1ccc(C=Cc2sc3cc(S(=O)(=O)N(CCCCCC)CCCCCC)ccc3[n+]2C)cc1 [Dye 113]
Fluorescence Enhancement with SDS [1]: 33
Fluorescence Enhancement without SDS [1]: None
